Test results from EP4168403B1 (priority 2020, dated 2021).

How the values were obtained:
[1] = system: mice; test: Object Recognition task (ORT), scopolamine-induced memory impairment; assay type: in vivo; conditions: 1 mg/kg intraperitoneally with scopolamine 0.5 mg/kg
Protocol: For behavioural studies, 50 swiss female 10-week-old weighing 25-30 g were used. Memory impairment was induced by the potent antimuscarinic drug scopolamine hydrobromide (0.5 mg/kg, Sigma) dissolved in saline buffer. To explore the potential of BIGI-3h as a cognitive enhancer, the compound was administered at a dose of 1 mg/kg and 10 mg/kg. For comparison, the antiamnesic effect of donepezil was tested (Tocris Bioscience, R&D Systems Inc.) at a dose of 1 mg/kg. Both products, 3h and donepezil, were dissolved in saline buffer containing 3.6% dimethyl sulfoxide. All drug solutions were independently prepared immediately before their use and were administered intraperitoneally in 10 mL/kg of vehicle volume. Different batches of mice were used for each experiment. The animals were distributed into 5 experimental groups (I-V): control groups (I) mice administered 3.6% DMSO in saline buffer, labelled as "control vehicle"; experimental groups (II-V) consisted of (II) mice administered scopolamine dissolved in 3.6% DMSO in saline buffer, labelled as "scop/DMSO," (III) mice co-administered scopolamine plus Donepezil, labelled as "Scopo/donep," (IV) and (V) mice co-administrated scopolamine plus BIGI-3h at 1mg/Kg and 10mg/Kg labelled respectively "Scopo/3h 1" "Scopo/3h 10".
Spontaneous object recognition was tested as described previously, 28 with slight modifications. All behavioural experiments took place during the light phase of the 12-h light/ dark cycle between 10 am and 3 pm to minimize the influence of circadian rhythm, and they were conducted with the investigators blind to treatments. […] The total time spent in active exploration of each object during T1 and T2 was determined with a computerized tracking system and image analyzer (Ethovision XT, Noldus Information Technology) that tracked the nose, centre and tail points of each mouse^45. As a criterion of active object exploration, it was measured the time spent by the animal directing its nose to the object at a distance of less than 2 cm and/or touching it with the vibrissae or nose. […]

[2] = target: Tau(306-336) peptide (Homo sapiens, UniProt P10636); conditions: Tau(306-336) 50 µM, inhibitor 50 µM (1:1 ratio); mean ± SEM
Tau(306-336) peptide, sequence (P10636 623-653 limits assumed): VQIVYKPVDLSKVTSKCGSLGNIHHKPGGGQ
Protocol: Subsequently, the sample was aliquoted dried and stored at -20 °C.
Fluorescence data were recorded every 10 min overnight with 1 min shaking at 800 rpm prior to each reading. Each inhibitor was assayed in triplicates in at least two independent experiments. […] Inhibition % are expressed as the mean ± SEM. […] Values were averaged and the presented values are expressed as the mean ± SEM.
Fluorescence data were recorded every 10 min overnight with 1 min shaking at 800 rpm prior to each reading.

| Structure (SMILES) | recognition index / discrimination index (Figure 5) [1] | Inhibition of T (306-336) peptide self - aggregation (%) [2] |
| --- | --- | --- |
| COc1cc2c(cc1OC)C(=O)C(CC1CCN(Cc3ccccc3)CC1)C2 (centres unmarked) [donepezil, reference compound] | reversed the short-term memory impairment induced by scopolamine | – |
| Nc1c2c(nc3ccccc13)CCCC2 [tacrine, reference compound] | – | not able to significantly interfere |
